Measurements from US20120277265A1, “NOVEL POLYQUINOLINE DERIVATIVES AND THE THERAPEUTIC USE THEREOF” (CENTRE NATIONAL DE LA RECHERCHE SCIENTIFIQUE (C.N.R.S.), priority 2005, published 2012).

Tests used:
[1] = tested on: copper complexes of Aβ1-42 peptide; assay: Stability of H2O2 during the H2O2 production inhibition experiments (known amount of H2O2 added); type: biochemical; settings: for theoretical value of H2O2 if there is no degradation (in parentheses): ascorbate, ligand; for H2O2 assayed: no Aβ1-42, Cu(II) 0.4 μM, ligand 0.4 μM
Procedure: (§1) The final concentrations are given. The reactions were carried out in the dark in mM sodium phosphate buffer (pH=7.4). Aβ1-42 (0.2 μM) and CuCl2 (0.4 μM) were pre-incubated for 1 hour at 37° C. while stirring at 1,400 rpm in 375 μl of buffer. Then 2 μl of a solution of ligand to be investigated (0.2; 0.4 or 0.8 μM) in DMSO were added. After incubation for a further hour, 2 μl of an aqueous sodium ascorbate solution (10 μM) were added and incubation was continued for 5 min while stirring. The amount of H2O2 produced is then quantified using an Amplex Red H2O2/HRP Assay Kit (Molecular Probes) while adding a volume of assay reagent to the samples, then incubating them for 1 hour at 37° C. while stirring at 500 rpm. H2O2 is then detected by spectrophotometry at 563 nm. Quantification is carried out on the basis of standard curves obtained with known amounts of H2O2.
(§2) Experiments were also carried out in the presence of a known amount of H2O2, added just before or just after the addition of sodium ascorbate, in order to investigate the stability of H2O2 under the experimental conditions employed.

[2] = target: T1, copper complexes of Aβ1-42 peptide (Homo sapiens, UniProt P05067); assay: as above; type: biochemical; settings: Aβ1-42 0.2 μM, Cu(II) 0.4 μM, ascorbate 10 μM, ligand 0.4 μM
T1 construct: The β-amyloid peptide Aβ1-42 (Aβ1-42) was synthesised, purified (to a purity greater than 95%); made in house; host or cells: chemical peptide synthesis (no expression host)
Procedure: as §1, §2

[3] = Competition reaction between ligand (Ls), ZnCl2 and competing chelator (Lc), UV-visible; affinity constants; type: binding; settings: for % MLs: Zn(II), EDTA as Lc, 1/1/1 at 15 μM
Procedure: An organic solvent (CH3OH, dioxane or DMSO) was added in order to achieve good solubility of all the ligands and metal complexes in the concentrations used in these experiments.
As the concentration [MLs]=x % of C is measured on the UV-visible spectra, the concentrations [Ls]=(1−x) % of C, [MLc]=(1−x) % of C and [Lc]=x % of C can be deduced therefrom and:
In these conditions, [MLs]=[MLc]; [MLs]+[Lc]=Y, y≧50 and:
When log Ks 6, these equations are not used since the percentages of metal ion which is free in the solution or chelated by the solvent or the buffer are not negligible.

[4] = Competition reaction between ligand (Ls), CuCl2 and competing chelator (Lc), UV-visible; affinity constants; settings: for number of Lc equivalents making it possible to form 50% of CuLs, Lc = EDTA: mixture of Ls (15 μM, 1 equivalent) and CuCl2 (1/1, mol/mol); for % MLs: Cu(II), EDTA as Lc, 1/1/1 at 15 μM
Procedure: An organic solvent (CH3OH, dioxane or DMSO) was added in order to achieve good solubility of all the ligands and metal complexes in the concentrations used in these experiments. Monitoring has shown that all the ligands and metal complexes examined yield results corresponding to the Beer-Lambert Law in the experimental conditions used.
Lc competing chelators were selected to provide a range of stability constants for the metal ion M presenting intervals of approximately one or two log units, as well as to make it possible for each competition experiment to quantify one of the Ls, MLs, Lcc or MLc species with a UV-vis spectrum wavelength without contaminating the three other species (FIG. 7). […] As the concentration [MLs]=x % of C is measured on the UV-visible spectra, the concentrations [Ls]=(1−x) % of C, [MLc]=(1−x) % of C and [Lc]=x % of C can be deduced therefrom and:

Aβ1-42 = target: T2, Aβ1-42 (Homo sapiens, UniProt P05067); assay: Inhibition of the precipitation of Aβ1-42 by the addition of ligand (Micro BCA assay of soluble/aggregated peptide); type: biochemical; settings: Aβ1-42 5 μM, pH 7.4; for CuCl2 % soluble Aβ: 20 μM CuCl2, 1 h 37° C. then 1 h with 200 μM ligand; for FeCl3 % soluble Aβ: 20 μM FeCl3, 1 h 37° C. then 1 h with 200 μM ligand; for ZnCl2 % soluble Aβ: 20 μM ZnCl2, 1 h 37° C. then 1 h with 200 μM ligand; for without metal % soluble Aβ: no metal salt, 1 h 37° C. then 1 h with 200 μM ligand
T2 construct: The β-amyloid peptide Aβ1-42 (Aβ1-42) was synthesised, purified (to a purity greater than 95%); made in house; host or cells: chemical peptide synthesis (no expression host)
Outline: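 Aβ1-42 (5 μM) pre-aggregated 1 h at 37 °C with stirring in 20 mM Tris-HCl/150 mM NaCl pH 7.4, with or without CuCl2, ZnCl2 or FeCl3 (20 μM). Ligand (200 μM, DMSO) added, 1 further hour at 37 °C; after centrifugation, peptide in supernatant and pellet quantified by Micro BCA against BSA standards.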

[5] = Number of ZnCl2 equivalents for the ligand to be entirely in the form of Zn(II) complex; type: binding; settings: competition with the tris buffer and the DMSO
[6] = Aβ1-42 0.2 μM, Cu(II), 3.0 nanomoles H2O2 added just after ascorbate
[7] = 3.0 nanomoles H2O2 added just after ascorbate
[8] = Ls/ZnCl2/Lc 1/1/1 at 15 μM, solvent per ligand as in Table 3
[9] = Ls/CuCl2/Lc 1/1/1 at 15 μM, solvent per ligand as in Table 3

T1 sequence (P05067 672-713 limits assumed, one chain of several): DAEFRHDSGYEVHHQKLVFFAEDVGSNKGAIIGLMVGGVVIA
T2 sequence (P05067 672-713): as the sequence (P05067 672-713 limits assumed, one chain of several) above

## Oc1cccc2ccc(C(F)(F)c3ccc4cccc(O)c4n3)nc12 [Compound 5, 2,2′-(Difluoromethanediyl)-bis(8-hydroxyquinoline)]
[1]; [6]
  theoretical value of H2O2 if there is no degradation (in parentheses): 3.5 nmol
[2]; [7]
  H2O2 assayed: 3.4 nmol
[2]; no H2O2 added
  H2O2 assayed: 0.55 ± 0.08 nmol
[3]; [8]
  percentage of ZnLs species at equilibrium, competing ligand EDTA: 55%
[4]; [9]
  percentage of the CuLs species at equilibrium, competing ligand EDTA: 45%
Aβ1-42
  CuCl2 % soluble Aβ: 51 ± 1%
  FeCl3 % soluble Aβ: 52%
  ZnCl2 % soluble Aβ: 50%
  without metal % soluble Aβ: 60%

## CC(C)(c1ccc2c(Cl)ccc(O)c2n1)c1ccc2c(Cl)ccc(O)c2n1 [Compound 4, 2,2′-(2,2-Propanediyl)-bis(5-chloro-8-hydroxyquinoline)]
[1]; [6]
  theoretical value of H2O2 if there is no degradation (in parentheses): 3.4 nmol
[2]; [7]
  H2O2 assayed: 3.3 nmol
[2]; no H2O2 added
  H2O2 assayed: 0.37 ± 0.09 nmol
[3]; [8]
  percentage of ZnLs species at equilibrium, competing ligand EDTA: 20%
[4]; [9]
  percentage of the CuLs species at equilibrium, competing ligand EDDA: 90%
  percentage of the CuLs species at equilibrium, competing ligand EDTA: 40%
  percentage of the CuLs species at equilibrium, competing ligand HIDA: 100%
[4]
  number of Lc equivalents making it possible to form 50% of CuLs, Lc = EDTA: 0.65 eq
Aβ1-42
  CuCl2 % soluble Aβ: 30%
  FeCl3 % soluble Aβ: 45%
  ZnCl2 % soluble Aβ: 49%
  without metal % soluble Aβ: 55%

## CC(C)(c1ccc2cccc(O)c2n1)c1ccc2cccc(O)c2n1 [Compound 3, 2,2′-(2,2-propanediyl)-bis(8-hydroxyquinoline)]
[1]; [6]
  theoretical value of H2O2 if there is no degradation (in parentheses): 3.7 (3.7) nanomoles
[1]; Aβ1-42 0.2 μM, Cu(II), 3.0 nanomoles H2O2 added just before the ascorbate
  theoretical value of H2O2 if there is no degradation (in parentheses): 3.7 nmol
[1]; ascorbate 10 μM, 3.0 nanomoles H2O2 added just after ascorbate
  H2O2 assayed: 3.8 (3.8) nanomoles
[1]; ascorbate 10 μM, no H2O2 added
  H2O2 assayed: 0.84 nmol
[1]; no ascorbate, 3.0 nanomoles H2O2 added
  H2O2 assayed: 3.1 nmol
[1]; no Aβ1-42, Cu(II), 3.0 nanomoles H2O2 added just after ascorbate
  theoretical value of H2O2 if there is no degradation (in parentheses): 3.8 (3.8) nanomoles
[2]; [7]
  H2O2 assayed: 3.7 (3.7) nanomoles
[2]; 3.0 nanomoles H2O2 added just before the ascorbate
  H2O2 assayed: 3.8 nmol
[2]; no H2O2 added
  H2O2 assayed: 0.71 ± 0.02 nmol
[3]; [8]
  percentage of ZnLs species at equilibrium, competing ligand DTPA: 20%
  percentage of ZnLs species at equilibrium, competing ligand EDTA: 30%
  percentage of ZnLs species at equilibrium, competing ligand EGTA: 100%
  percentage of ZnLs species at equilibrium, competing ligand NTA: 100%
  percentage of ZnLs species at equilibrium, competing ligand Trien: 100%
[3]; Buffer/CH3OH (1/1)
  % MLs: 30%
[3]; Buffer/DMSO (2/8)
  % MLs: 35%
[3]; Buffer/dioxane (2/8)
  % MLs: 33%
[3]; CH3OH
  % MLs: 40%
[3]; mixture of Ls (15 μM, 1 equivalent) and ZnCl2 (1/1, mol/mol)
  number of Lc equivalents making it possible to form 50% of ZnLs, Lc = EDTA: 0.7 eq
[4]; Buffer/CH3OH (1/1)
  % MLs: 50%
[4]; Buffer/DMSO (2/8)
  % MLs: 55%
[4]; Buffer/dioxane (1/1)
  % MLs: 45%
[4]; [9]
  percentage of the CuLs species at equilibrium, competing ligand CTDA: 15%
  percentage of the CuLs species at equilibrium, competing ligand EDA: 100%
  percentage of the CuLs species at equilibrium, competing ligand EDDA: 100%
  percentage of the CuLs species at equilibrium, competing ligand EDTA: 50%
  percentage of the CuLs species at equilibrium, competing ligand HIDA: 100%
  percentage of the CuLs species at equilibrium, competing ligand Tetren: 0%
  percentage of the CuLs species at equilibrium, competing ligand Trien: 30%
  percentage of the CuLs species at equilibrium, competing ligand biPy: 100%
[4]
  number of Lc equivalents making it possible to form 50% of CuLs, Lc = EDTA: 1 eq
Aβ1-42
  CuCl2 % soluble Aβ: 47 ± 3%
  FeCl3 % soluble Aβ: 60%
  ZnCl2 % soluble Aβ: 59%
  without metal % soluble Aβ: 56%

## c1cnc2c(Nc3cccc4cccnc34)cccc2c1 [Compound 12, Bis(8-quinoline)amine]
[1]; [6]
  theoretical value of H2O2 if there is no degradation (in parentheses): 3.4 nmol
[1]; Table 7 conditions
  degradation of added H2O2: none of the added H2O2 is found again
[2]; [7]
  H2O2 assayed: 1.7 nmol
[2]; no H2O2 added
  H2O2 assayed: 0.47 ± 0.09 nmol
[3]; affinity constant at pH = 7.4, solvent per ligand as in Table 3 column Solvent, Equation 8 (a) or 7 (b)
  Log KZn^II: ≈6
[4]; [9]
  percentage of the CuLs species at equilibrium, competing ligand EDTA: 55%
Aβ1-42
  CuCl2 % soluble Aβ: 69 ± 2%
  FeCl3 % soluble Aβ: 59%
  ZnCl2 % soluble Aβ: 52%
  without metal % soluble Aβ: 69%
[5]
  number of ZnCl2 equivalent for 15 μM of ligand to be entirely in the form of Zn(II) complex: 100 eq ZnCl2

## O=C(c1ccc2cccc(O)c2n1)c1ccc2cccc(O)c2n1 [Compound 6, Bis(8-hydroxy-2-quinoline)methanone]
[1]; [6]
  theoretical value of H2O2 if there is no degradation (in parentheses): 3.9 nmol
[2]; [7]
  H2O2 assayed: 3.6 nmol
[2]; no H2O2 added
  H2O2 assayed: 0.87 ± 0.11 nmol
[3]; [8]
  percentage of ZnLs species at equilibrium, competing ligand EDTA: 75%
[4]; [9]
  percentage of the CuLs species at equilibrium, competing ligand EDTA: 75%
Aβ1-42
  CuCl2 % soluble Aβ: 58 ± 3%
  FeCl3 % soluble Aβ: 51%
  ZnCl2 % soluble Aβ: 54%
  without metal % soluble Aβ: 56%
